# Measurements taken from the supplement of paper PMC10307832.
# Experiments:
# Assay in all cases: relative viability (nuclei count vs DMSO), 5 days (fraction); higher = more cells survive
# [1] = system: NCI-H1944
# Outline: (§1)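 Relative viability was taken as the ratio of nuclei in treated wells to nuclei in vehicle wells. Lung cancer cell lines in 1536-well plates received compounds by pin tool one day after seeding, either one drug alone or a fixed anchor-drug dose plus five library-drug doses (not always all listed) in √10 steps. Nuclei were counted on 4× images after 5 days of treatment, and values are medians of duplicate plates.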
# [2] = system: EMC-BAC-2
# Outline: as §1
# [3] = system: LK-2
# Outline: as §1
# [4] = system: LU99A
# Outline: as §1
# [5] = system: LXF-289
# Outline: as §1
# [6] = system: HARA
# Outline: as §1
# [7] = system: SW 1573
# Outline: as §1
# [8] = system: PC-3 [JPC-3]
# Outline: as §1
# [9] = system: SK-MES-1
# Outline: as §1
# [10] = system: A-427
# Outline: as §1
# [11] = system: NCI-H3122
# Outline: as §1
# [12] = system: NCI-H2228
# Outline: as §1
# [13] = system: NCI-H1792
# Outline: as §1
# [14] = system: NCI-H2170
# Outline: as §1
# [15] = system: HOP-62
# Outline: as §1
# [16] = system: NCI-H1993
# Outline: as §1
# [17] = system: COR-L23
# Outline: as §1
# [18] = system: SK-LU-1
# Outline: as §1
# [19] = system: NCI-H596
# Outline: as §1
# [20] = system: NCI-H1793
# Outline: as §1
# [21] = system: NCI-H2009
# Outline: as §1
# [22] = system: NCI-H727
# Outline: as §1
# [23] = system: ABC-1
# Outline: as §1
structure (smiles),measurement,setting,value
CC(C)Oc1cc(Nc2nc(N[C@@H](C)c3ccc(F)cn3)ncc2Cl)n[nH]1 [AZ23] + Cc1nc(NC(=O)N2CCC[C@H]2C(N)=O)sc1-c1ccnc(C(C)(C)C(F)(F)F)c1 [Alpelisib] (partner 2 µM),relative viability,[1]; first compound 0.01 µM,0.811
same,relative viability,[1]; first compound 0.03162 µM,0.868
same,relative viability,[1]; first compound 0.3162 µM,0.883
same,relative viability,[2]; first compound 0.01 µM,0.897
same,relative viability,[2]; first compound 0.03162 µM,0.791
same,relative viability,[2]; first compound 0.3162 µM,0.754
same,relative viability,[3]; first compound 0.03162 µM,1.26
same,relative viability,[3]; first compound 0.3162 µM,1.17
same,relative viability,[4]; first compound 0.01 µM,0.49
same,relative viability,[4]; first compound 0.03162 µM,0.651
same,relative viability,[4]; first compound 0.3162 µM,0.555
same,relative viability,[5]; first compound 0.01 µM,1.15
same,relative viability,[5]; first compound 0.03162 µM,1.08
same,relative viability,[5]; first compound 0.3162 µM,1.05
same,relative viability,[6]; first compound 0.01 µM,1.18
same,relative viability,[6]; first compound 0.03162 µM,0.847
same,relative viability,[6]; first compound 0.3162 µM,0.774
same,relative viability,[7]; first compound 0.01 µM,0.852
same,relative viability,[7]; first compound 0.03162 µM,0.845
same,relative viability,[7]; first compound 0.3162 µM,0.712
same,relative viability,[8]; first compound 0.01 µM,1.14
same,relative viability,[8]; first compound 0.03162 µM,1.06
same,relative viability,[8]; first compound 0.3162 µM,0.962
same,relative viability,[9]; first compound 0.01 µM,1.01
same,relative viability,[9]; first compound 0.03162 µM,0.997
same,relative viability,[9]; first compound 0.3162 µM,1.06
same,relative viability,[10]; first compound 0.01 µM,1.13
same,relative viability,[10]; first compound 0.03162 µM,1.1
same,relative viability,[10]; first compound 0.3162 µM,1.08
same,relative viability,[11]; first compound 0.01 µM,0.811
same,relative viability,[11]; first compound 0.03162 µM,0.827
same,relative viability,[11]; first compound 0.3162 µM,0.77
same,relative viability,[12]; first compound 0.01 µM,0.88
same,relative viability,[12]; first compound 0.03162 µM,1.01
same,relative viability,[12]; first compound 0.3162 µM,0.67
same,relative viability,[13]; first compound 0.01 µM,1.08
same,relative viability,[13]; first compound 0.03162 µM,0.831
same,relative viability,[13]; first compound 0.3162 µM,0.83
same,relative viability,[14]; first compound 0.01 µM,0.87
same,relative viability,[14]; first compound 0.03162 µM,0.887
same,relative viability,[14]; first compound 0.3162 µM,0.831
same,relative viability,[15]; first compound 0.01 µM,1.08
same,relative viability,[15]; first compound 0.03162 µM,0.973
same,relative viability,[15]; first compound 0.3162 µM,0.97
same,relative viability,[16]; first compound 0.01 µM,0.597
same,relative viability,[16]; first compound 0.3162 µM,0.659
same,relative viability,[17]; first compound 0.01 µM,0.815
same,relative viability,[17]; first compound 0.03162 µM,0.921
same,relative viability,[17]; first compound 0.3162 µM,0.821
same,relative viability,[18]; first compound 0.01 µM,1.28
same,relative viability,[18]; first compound 0.03162 µM,1.09
same,relative viability,[18]; first compound 0.3162 µM,0.973
same,relative viability,[19]; first compound 0.01 µM,0.51
same,relative viability,[19]; first compound 0.03162 µM,0.528
same,relative viability,[19]; first compound 0.3162 µM,0.418
same,relative viability,[20]; first compound 0.01 µM,0.83
same,relative viability,[20]; first compound 0.03162 µM,0.787
same,relative viability,[20]; first compound 0.3162 µM,0.643
same,relative viability,[21]; first compound 0.01 µM,1.13
same,relative viability,[21]; first compound 0.03162 µM,1.23
same,relative viability,[21]; first compound 0.3162 µM,1.19
same,relative viability,[22]; first compound 0.01 µM,0.634
same,relative viability,[22]; first compound 0.03162 µM,0.628
same,relative viability,[22]; first compound 0.3162 µM,0.601
same,relative viability,[23]; first compound 0.01 µM,0.717
same,relative viability,[23]; first compound 0.03162 µM,1.23
same,relative viability,[23]; first compound 0.3162 µM,1.14
